# Measurements published in PubChem BioAssay AID1259407 (Chemical Carcinogenesis Research Information System (CCRIS), 2018).
# The source made the active and inactive calls. No rule for the calls is given here.
# System: CCRIS mutagenicity, Ames/micronucleus/aberration tests
# Assay: CCRIS mutagenicity studies
# [1] = Test System: AMES SALMONELLA TYPHIMURIUM, Strain/Indicator: TA100, Metabolic Activation: RAT, LIVER, S-9, AROCLOR 1254, Method: STANDARD PLATE
# [2] = Test System: AMES SALMONELLA TYPHIMURIUM, Strain/Indicator: TA98, Metabolic Activation: NONE, Method: PREINCUBATION
# [3] = Test System: AMES SALMONELLA TYPHIMURIUM, Strain/Indicator: TA100, Metabolic Activation: NONE, Method: PREINCUBATION
# [4] = Test System: AMES SALMONELLA TYPHIMURIUM, Strain/Indicator: TA98, Metabolic Activation: NONE, Method: STANDARD PLATE
# [5] = Test System: AMES SALMONELLA TYPHIMURIUM, Strain/Indicator: TA100, Metabolic Activation: NONE, Method: STANDARD PLATE
# [6] = Test System: AMES SALMONELLA TYPHIMURIUM, Strain/Indicator: TA100, Metabolic Activation: RAT, LIVER, S-9, PCB, Method: PREINCUBATION
smiles,measurement,setting,value
Cn1c2ccc3ccccc3c2c2c3ccccc3ccc21,mutagenic call,[1],active; positive
same,mutagenic call,"Test System: AMES SALMONELLA TYPHIMURIUM, Strain/Indicator: TM677, Metabolic Activation: RAT, LIVER, S-9, 3-METHYLCHOLANTHRENE (1%), Method: PREINCUBATION",inactive; negative
same,mutagenic call,"Test System: AMES SALMONELLA TYPHIMURIUM, Strain/Indicator: TM677, Metabolic Activation: RAT, LIVER, S-9, 3-METHYLCHOLANTHRENE (10%), Method: PREINCUBATION",inactive; negative
same,mutagenic call,"Test System: AMES SALMONELLA TYPHIMURIUM, Strain/Indicator: TM677, Metabolic Activation: RAT, LIVER, S-9, AROCLOR 1254 (10%), Method: PREINCUBATION",inactive; negative
Cn1cccc1,mutagenic call,[2],inactive; negative
same,mutagenic call,"Test System: AMES SALMONELLA TYPHIMURIUM, Strain/Indicator: TA98, Metabolic Activation: RAT, LIVER, S-9, AROCLOR 1254, Method: PREINCUBATION",inactive; negative
same,mutagenic call,[3],inactive; negative
same,mutagenic call,"Test System: AMES SALMONELLA TYPHIMURIUM, Strain/Indicator: TA100, Metabolic Activation: RAT, LIVER, S-9, AROCLOR 1254, Method: PREINCUBATION",inactive; negative
same,mutagenic call,"Test System: AMES SALMONELLA TYPHIMURIUM, Strain/Indicator: TA102, Metabolic Activation: NONE, Method: PREINCUBATION",inactive; negative
same,mutagenic call,"Test System: AMES SALMONELLA TYPHIMURIUM, Strain/Indicator: TA102, Metabolic Activation: RAT, LIVER, S-9, AROCLOR 1254, Method: PREINCUBATION",inactive; negative
Cc1ccc2c(c1)C(=O)c1ccccc1C2=O,mutagenic call,"Test System: AMES SALMONELLA TYPHIMURIUM, Strain/Indicator: TA97, Metabolic Activation: NONE, Method: STANDARD PLATE",inactive; negative
same,mutagenic call,"Test System: AMES SALMONELLA TYPHIMURIUM, Strain/Indicator: TA97, Metabolic Activation: RAT, LIVER, S-9, PCB, Method: STANDARD PLATE",inactive; negative
same,mutagenic call,[2],inactive; negative
same,mutagenic call,[4],inactive; negative
same,mutagenic call,"Test System: AMES SALMONELLA TYPHIMURIUM, Strain/Indicator: TA98, Metabolic Activation: RAT, LIVER, S-9, PCB, Method: PREINCUBATION",inactive; negative
same,mutagenic call,"Test System: AMES SALMONELLA TYPHIMURIUM, Strain/Indicator: TA98, Metabolic Activation: RAT, LIVER, S-9, PCB, Method: STANDARD PLATE",inactive; negative
same,mutagenic call,[3],inactive; negative
same,mutagenic call,[5],inactive; negative
same,mutagenic call,[6],inactive; negative
same,mutagenic call,"Test System: AMES SALMONELLA TYPHIMURIUM, Strain/Indicator: TA100, Metabolic Activation: RAT, LIVER, S-9, PCB, Method: STANDARD PLATE",inactive; negative
C[Si](C)(C)N=[N+]=[N-],mutagenic call,[3],active; positive
same,mutagenic call,[6],active; positive
CCCN(CO)N=O,mutagenic call,"Test System: CHINESE HAMSTER V-79, Strain/Indicator: V-79/OUABAIN, Metabolic Activation: NONE",active; positive
COCCCN(N=O)C(N)=O,mutagenic call,"Test System: E. COLI B, Strain/Indicator: H/R30R, Metabolic Activation: NONE",active; positive
same,mutagenic call,"Test System: E. COLI B, Strain/Indicator: HS30R, Metabolic Activation: NONE",active; positive
CCN1CCNC(=O)C1=O,mutagenic call,[2],inactive; negative
same,mutagenic call,"Test System: AMES SALMONELLA TYPHIMURIUM, Strain/Indicator: TA98, Metabolic Activation: RAT LIVER S-9, PHENOBARBITAL AND BETA-NAPHTHOFLAVONE, Method: PREINCUBATION",inactive; negative
same,mutagenic call,[3],inactive; negative
same,mutagenic call,"Test System: AMES SALMONELLA TYPHIMURIUM, Strain/Indicator: TA100, Metabolic Activation: RAT LIVER S-9, PHENOBARBITAL AND BETA-NAPHTHOFLAVONE, Method: PREINCUBATION",inactive; negative
same,mutagenic call,"Test System: AMES SALMONELLA TYPHIMURIUM, Strain/Indicator: TA1535, Metabolic Activation: NONE, Method: PREINCUBATION",inactive; negative
same,mutagenic call,"Test System: AMES SALMONELLA TYPHIMURIUM, Strain/Indicator: TA1535, Metabolic Activation: RAT LIVER S-9, PHENOBARBITAL AND BETA-NAPHTHOFLAVONE, Method: PREINCUBATION",inactive; negative
same,mutagenic call,"Test System: AMES SALMONELLA TYPHIMURIUM, Strain/Indicator: TA1537, Metabolic Activation: NONE, Method: PREINCUBATION",inactive; negative
same,mutagenic call,"Test System: AMES SALMONELLA TYPHIMURIUM, Strain/Indicator: TA1537, Metabolic Activation: RAT LIVER S-9, PHENOBARBITAL AND BETA-NAPHTHOFLAVONE, Method: PREINCUBATION",inactive; negative
same,mutagenic call,"Test System: AMES SALMONELLA TYPHIMURIUM, Strain/Indicator: TA1538, Metabolic Activation: NONE, Method: PREINCUBATION",inactive; negative
same,mutagenic call,"Test System: AMES SALMONELLA TYPHIMURIUM, Strain/Indicator: TA1538, Metabolic Activation: RAT LIVER S-9, PHENOBARBITAL AND BETA-NAPHTHOFLAVONE, Method: PREINCUBATION",inactive; negative
same,mutagenic call,"Test System: E.COLI, Strain/Indicator: WP2UVRA, Metabolic Activation: NONE, Method: PREINCUBATION",inactive; negative
same,mutagenic call,"Test System: E.COLI, Strain/Indicator: WP2UVRA, Metabolic Activation: RAT LIVER S-9, PHENOBARBITAL AND BETA-NAPHTHOFLAVONE, Method: PREINCUBATION",inactive; negative
COc1cc([C@@H]2c3cc4c(cc3[C@H](O)[C@H]3COC(=O)[C@H]23)OCO4)cc(OC)c1OC,mutagenic call,"Test System: AMES SALMONELLA TYPHIMURIUM, Strain/Indicator: TA98, Metabolic Activation: HAMSTER, LIVER, S-9, AROCLOR 1254, Method: STANDARD PLATE",inactive; negative
same,mutagenic call,[4],inactive; negative
same,mutagenic call,"Test System: AMES SALMONELLA TYPHIMURIUM, Strain/Indicator: TA98, Metabolic Activation: RAT, LIVER, S-9, AROCLOR 1254, Method: STANDARD PLATE",inactive; negative
same,mutagenic call,"Test System: AMES SALMONELLA TYPHIMURIUM, Strain/Indicator: TA100, Metabolic Activation: HAMSTER, LIVER, S-9, AROCLOR 1254, Method: STANDARD PLATE",inactive; negative
same,mutagenic call,[5],inactive; negative
same,mutagenic call,[1],inactive; negative
same,mutagenic call,"Test System: AMES SALMONELLA TYPHIMURIUM, Strain/Indicator: TA102, Metabolic Activation: NONE, Method: STANDARD PLATE",inactive; negative
same,mutagenic call,"Test System: AMES SALMONELLA TYPHIMURIUM, Strain/Indicator: TA102, Metabolic Activation: RAT, LIVER, S-9, AROCLOR 1254, Method: STANDARD PLATE",inactive; negative
same,mutagenic call,"Test System: AMES SALMONELLA TYPHIMURIUM, Strain/Indicator: TA1535, Metabolic Activation: HAMSTER, LIVER, S-9, AROCLOR 1254, Method: STANDARD PLATE",inactive; negative
same,mutagenic call,"Test System: AMES SALMONELLA TYPHIMURIUM, Strain/Indicator: TA1535, Metabolic Activation: NONE, Method: STANDARD PLATE",inactive; negative
same,mutagenic call,"Test System: AMES SALMONELLA TYPHIMURIUM, Strain/Indicator: TA1535, Metabolic Activation: RAT, LIVER, S-9, AROCLOR 1254, Method: STANDARD PLATE",inactive; negative
same,mutagenic call,"Test System: AMES SALMONELLA TYPHIMURIUM, Strain/Indicator: TA1537, Metabolic Activation: HAMSTER, LIVER, S-9, AROCLOR 1254, Method: STANDARD PLATE",inactive; negative
same,mutagenic call,"Test System: AMES SALMONELLA TYPHIMURIUM, Strain/Indicator: TA1537, Metabolic Activation: NONE, Method: STANDARD PLATE",inactive; negative
same,mutagenic call,"Test System: AMES SALMONELLA TYPHIMURIUM, Strain/Indicator: TA1537, Metabolic Activation: RAT, LIVER, S-9, AROCLOR 1254, Method: STANDARD PLATE",inactive; negative
same,mutagenic call,"Test System: MOUSE LYMPHOMA, Strain/Indicator: L5178Y (TK+/TK-), Metabolic Activation: NONE, Method: SUSPENSION/PLATE",inactive; negative. reevaluation of results: negative
same,mutagenic call,"Test System: MOUSE LYMPHOMA, Strain/Indicator: L5178Y (TK+/TK-), Metabolic Activation: RAT, LIVER, S-9, AROCLOR 1254, Method: SUSPENSION/PLATE",inactive; negative. reevaluation of results: negative
